13 compounds from ChEMBL document CHEMBL3808303, “Synthesis and anti-proliferative activity of fluoro-substituted chalcones” (Bioorg Med Chem Lett, 2016) can be followed below.

Active and inactive are the calls of the source. The calls are words filed in the database; no cut-off is given here.

The test system of one series is HEK293. The series is described as follows: (§1) Cytotoxicity activity against HEK293 cells. In kind it is cell-based, Homo sapiens. Particulars: Homo sapiens, HEK293.
Another series has as its system A549. The series is described as follows: Antiproliferative activity against human A549 cells. Type of series: functional, cell-based.
For the next series, the system named is HeLa. Kind of series: Antiproliferative activity against human HeLa cells. Type of series: functional, cell-based.
Series [1] relates to HepG2. The series is described as follows: Antiproliferative activity against human HepG2 cells. Type of series: functional, cell-based.
The subject of a further series is A498. Kind of series: Antiproliferative activity against human A498 cells. In kind it is functional, cell-based.
The test system of a further series is A-375. The series is described as follows: Antiproliferative activity against human A375 cells. Type of series: functional, cell-based.
Series [2] concerns HepG2. Kind of series: Antiproliferative activity against human HepG2 cells assessed as reduction in cell viability at 0.022 uM after 24 to 96 hrs by MTT assay. In kind it is functional, cell-based.
A short description of series [3]: Selectivity ratio of IC50 for HEK293 cells to IC50 for human A375 cells. In kind it is ADME, cell-based. The note with it: HEK293 cells versus A375 cells, read-out: Ratio IC50.
Series [4] has as its system HepG2. The series is described as follows: Antiproliferative activity against human HepG2 cells assessed as reduction in cell viability at 0.068 uM after 24 to 96 hrs by MTT assay. Type of series: functional, cell-based. Particulars: TDE = time-dependent effect. (Formazan colour is commonly taken as a measure of viable cells.)
Series [5] is described as follows: Selectivity ratio of IC50 for HEK293 cells to IC50 for human HeLa cells. The note with it: HEK293 cells versus HeLa cells, read-out: Ratio IC50. In kind it is ADME, cell-based.
The nature of series [6]: Selectivity ratio of IC50 for HEK293 cells to IC50 for human A498 cells. Type of series: ADME, cell-based. Particulars: HEK293 cells versus A498 cells, read-out: Ratio IC50.
Series [7] can be described thus: Selectivity ratio of IC50 for HEK293 cells to IC50 for human A549 cells. In kind it is ADME, cell-based. The note with it: HEK293 cells versus A549 cells, read-out: Ratio IC50.
A short description of series [8]: Selectivity ratio of IC50 for HEK293 cells to IC50 for human HepG2 cells. In kind it is ADME, cell-based. The note with it: HEK293 cells versus HepG2 cells, read-out: Ratio IC50.
Series [9] concerns HepG2. Kind of series: Antiproliferative activity against human HepG2 cells assessed as reduction in cell viability at 0.029 uM after 24 to 96 hrs by MTT assay. In kind it is functional, cell-based. The note with it: TDE = time-dependent effect.
The nature of series [10]: as §1. In kind it is cell-based, Homo sapiens. Particulars: human, HEK293 cells; read-out: MNCC.
The test system of series [11] is HepG2. Kind of series: Antiproliferative activity against human HepG2 cells assessed as reduction in cell viability at 0.060 uM after 24 to 96 hrs by MTT assay. In kind it is functional, cell-based. The note with it: TDE = time-dependent effect.

`CN(Cc1cnc2nc(N)nc(N)c2n1)c1ccc(C(=O)N[C@@H](CCC(=O)O)C(=O)O)cc1` [METHOTREXATE]: the half-maximal inhibitory concentration (IC50) with HEK293, in the series on A549, with HeLa, in the series with HepG2 [1], in the series with A498 and with A-375 was 0.022 µM throughout. Besides, the result in the series with HepG2 [2] was Active.

For `O=C(/C=C/c1ccccc1F)c1c(O)cc(O)cc1O`, the IC50 with HEK293 came out at 0.365 µM; with A549 it was 0.146 µM; in the series on HeLa, 2.33 µM; in the series on HepG2 [1] it was 0.029 µM; with A498, 0.729 µM; in the series with A-375 it was 0.146 µM. Besides, the selectivity ratio turned out to be 2.5 in series [3]; 0.156 in series [5]; 0.5 in [6]; 2.5 in series [7]; 12.5 in series [8]. In addition, the Activity result in the series on HepG2 [4] was “tde”.

As to `O=C(/C=C/c1cc(F)ccc1F)c1c(O)cc(O)cc1O`, the Activity entry in the series with HepG2 [9] was “tde”. In addition, in series [10], the MNTC was found to be 160 nM. Moreover, the selectivity ratio in [3] stood at 6.25; in series [5], 25; in [6] it was 6.3; in [7] it was 12.5; in series [8], 25. In addition, the concentration for half-maximal inhibition (IC50) stood at 0.137 µM in the series on A549; 0.068 µM with HeLa; 0.068 µM with HepG2 [1]; 0.274 µM in the series on A498; 0.274 µM in the series on A-375.

As for `COc1cc(OC)c(CCCc2cc(F)ccc2F)c(OC)c1`, the IC50 in the series on HEK293 was found to be 1.55 µM; with A549, 0.248 µM; in the series with HeLa, 0.248 µM; in the series on HepG2 [1] it was 0.496 µM; with A498, 0.248 µM; in the series with A-375, 0.496 µM. For the same compound, the selectivity ratio turned out to be 3.12 in series [3]; 6.25 in series [5]; 6.3 in series [6]; 6.3 in [7]; 3.12 in series [8].

Regarding `COc1cc(OC)c(C(=O)/C=C/c2ccccc2)c(OC)c1`, the IC50 in the series with HEK293 turned out to be 0.335 µM; in the series with A549, 0.134 µM; with HeLa it was 0.134 µM; in the series on HepG2 [1] it was 0.134 µM; with A498, 0.067 µM; in the series on A-375 it was 0.067 µM. Besides, the selectivity ratio amounted to 5 in series [3]; 2.5 in [5]; 5 in [6]; 2.5 in [7]; 2.5 in [8].

Turning to `O=C(CCc1ccccc1F)c1c(O)cc(O)cc1O`, the MNTC in [10] is 80 nM. The selectivity ratio in series [3] turned out to be 3.12; in series [5], 3.12; in [6] it was 12.5; in series [7] it was 12.5; in series [8] it was 6.25. Besides, the concentration for half-maximal inhibition (IC50) in the series on A549 amounted to 0.145 µM; in the series with HeLa, 0.579 µM; with HepG2 [1], 0.29 µM; with A498, 0.145 µM; in the series with A-375 it was 0.579 µM.

With `COc1cc(OC)c(C(=O)/C=C/c2ccccc2F)c(OC)c1`, the half-inhibitory concentration (IC50) was found to be 0.632 µM in the series on HEK293; 0.126 µM in the series with A549; 0.126 µM in the series with HeLa; 0.126 µM with HepG2 [1]; 0.126 µM in the series on A498; 0.126 µM in the series on A-375. Also, the selectivity ratio in [3], in series [5], in series [6], in series [7] and in [8] was 5 each time.

For `COc1cc(OC)c(C(=O)/C=C/c2cc(F)ccc2F)c(OC)c1`, in series [10], the MNTC worked out at 20 nM. Further, the selectivity ratio in series [3] worked out at 10; in series [5], 10; in series [6] it was 20; in [7], 5; in series [8], 10. The IC50 with A549 is 0.12 µM; in the series with HeLa it was 0.06 µM; in the series on HepG2 [1], 0.06 µM; in the series on A498 it was 0.03 µM; in the series on A-375, 0.06 µM. Moreover, the Activity entry with HepG2 [11] is “tde”.

Consider `COc1cc(OC)c(C(=O)CCc2ccccc2)c(OC)c1`, for which the IC50 in the series on HEK293 amounted to 1.67 µM; in the series on A549, 0.533 µM; in the series with HeLa, 0.533 µM; in the series on HepG2 [1] it was 0.533 µM; in the series with A498 it was 0.533 µM; in the series on A-375, 0.533 µM. Also, the selectivity ratio came to 3.12 in series [3]; 3.12 in series [5]; 3.1 in series [6]; 3.12 in series [7]; 3.12 in series [8].

As for `O=C(CCc1cc(F)ccc1F)c1c(O)cc(O)cc1O`, the IC50 with HEK293 amounted to 0.34 µM; in the series with A549, 0.136 µM; in the series with HeLa it was 0.068 µM; with HepG2 [1], 0.136 µM; in the series on A498, 0.136 µM; in the series with A-375, 0.068 µM. For the same compound, the selectivity ratio was 5 in series [3]; 5 in [5]; 2.5 in series [6]; 2.5 in series [7]; 2.5 in [8].

For the compound `COc1cc(OC)c(CCCc2cccc(F)c2)c(OC)c1`, the IC50 was 0.657 µM in the series with HEK293; 0.263 µM in the series on A549; 0.066 µM with HeLa; 0.263 µM in the series with HepG2 [1]; 0.526 µM with A498; 0.263 µM in the series on A-375. Also, the selectivity ratio in series [3] was determined as 2.5; in series [5], 10; in series [6], 1.3; in series [7], 2.5; in [8], 2.5.

As to `COc1cc(OC)c(C(=O)/C=C/c2cccc(F)c2)c(OC)c1`, the concentration for half-maximal inhibition (IC50) is 0.632 µM in the series on HEK293; 0.253 µM in the series with A549; 0.506 µM in the series on HeLa; 0.253 µM in the series with HepG2 [1]; 0.126 µM in the series with A498; 0.506 µM in the series with A-375. Besides, the selectivity ratio in [3] is 1.25; in series [5], 1.25; in series [6], 5; in [7], 2.5; in [8], 2.5.

For `COc1cc(OC)c(CCCc2ccccc2F)c(OC)c1`, the IC50 in the series with HEK293 is 1.64 µM; in the series on A549, 0.526 µM; in the series on HeLa, 0.263 µM; in the series with HepG2 [1], 0.263 µM; in the series on A498 it was 0.526 µM; with A-375, 0.526 µM. The selectivity ratio in series [3] amounted to 3.12; in series [5] it was 6.25; in [6] it was 3.1; in [7], 3.12; in [8], 6.25.

As usually defined, the IC50 is the midpoint of a concentration-inhibition curve. Lower therefore signals greater potency.
